Consider 21 molecules from patent US20230167103A1 (Bayer Aktiengesellschaft, priority 2020, published 2023).

Where two headings read alike, the source gives them in different places.

The assay has as its target T1, human DGKζ (Homo sapiens, UniProt Q13574).
T1 construct: made in house; host or cells: Sf9 insect cells, baculovirus
Briefly: Human DGKζ kinase activity inhibition assay (ADP-Glo). Format: biochemical. As to the method: Human diacylglycerol kinase zeta (DGKζ) inhibitory activity of compounds of the present invention was quantified employing the human DGKζ kinase activity assay as described in the following paragraphs. In essence, the enzyme activity was measured by quantification of the adenosine-di-phosphate (ADP) generated as a co-product of the enzyme reaction via the “ADP-Glo™ Kinase Assay” kit from the company Promega. This detection system works as follows: In a first step the adenosine-tri-phosphate (ATP) not consumed in the kinase reaction is quantitatively converted to cyclic adenosine-mono-phosphate (cAMP) employing an adenylate cyclase (“ADP-Glo-reagent”), then the adenylate cyclase is stopped and the ADP generated in the kinase reaction is converted to ATP, which subsequently generates in a luciferase-based reaction a glow-luminescence signal (“Kinase Detection Reagent”).
C-terminally FLAG-tagged, recombinant full-length human DGKζ (inhouse expressed in baculovirus infected insect cells, purified using anti-Flag pulldown and size exclusion chromatography) was used as enzyme. As an alternative, commercially available enzyme by Carnabio can be used. As substrate for the kinase, 1,2-dioleoyl-sn-glycerol, reconstituted in octyl-β-D-glucopyranoside micelles, was used. […] Subsequently, 22.55 volumes of a 510 mM solution of octyl-β-D-glucopyranoside (Sigma-Aldrich, Cat. #O8001-10G) in 50 mM MOPS buffer (pH 7.4) were added, and the mixture was sonicated in an ultrasonic bath for 20 s. Then 35 volumes of 50 mM MOPS buffer (pH 7.4) were added to yield a solution of 0.28 mM 1,2 dioleoyl-sn-glycerol and 200 mM octyl-β-D-glucopyranoside, which was aliquoted, flash-frozen in liquid nitrogen, and stored at −20° C. until use.
For the assay 50 nl of a 100-fold concentrated solution of the test compound in dimethyl sulfoxide (DMSO, Sigma) was pipetted into either a white 1536-well or a white low-volume 384-well microtiter plate (both Greiner Bio-One, Frickenhausen, Germany). […] The concentration of DGKζ was adjusted depending of the activity of the enzyme lot and was chosen appropriate to have the assay in the linear range, a typical concentration is about 0.1 nM. The reaction was stopped by the addition of 2.5 μL of “ADP-Glo-reagent” (1 to 1.5 diluted with water) and the resulting mixture was incubated at 22° C. for 1 h to convert the ATP not consumed in the kinase reaction completely to cAMP. Subsequently 2.5 μl of the “kinase detection reagent” (1.2 fold more concentrated than recommended by the producer) were added, the resulting mixture was incubated at 22° C. for 1 h and then the luminescence measured with a suitable measurement instrument (e.g. Viewlux™ from Perkin-Elmer). The amount of emitted light was taken as a measure for the amount of ADP generated and thereby for the activity of the DGKζ.
The data were normalised (enzyme reaction without inhibitor=0% inhibition, all other assay components but no enzyme=100% inhibition).

Where [1] appears, read: example compounds, recombinant full-length human DGKζ, 1,2-dioleoyl-sn-glycerol 7 μM, ATP 55 μM, 20 min at 22° C., read-out: IC50 values of examples in in vitro human DGKζ kinase activity inhibition assays.

T1 sequence (Q13574 with tags, fused parts or gaps): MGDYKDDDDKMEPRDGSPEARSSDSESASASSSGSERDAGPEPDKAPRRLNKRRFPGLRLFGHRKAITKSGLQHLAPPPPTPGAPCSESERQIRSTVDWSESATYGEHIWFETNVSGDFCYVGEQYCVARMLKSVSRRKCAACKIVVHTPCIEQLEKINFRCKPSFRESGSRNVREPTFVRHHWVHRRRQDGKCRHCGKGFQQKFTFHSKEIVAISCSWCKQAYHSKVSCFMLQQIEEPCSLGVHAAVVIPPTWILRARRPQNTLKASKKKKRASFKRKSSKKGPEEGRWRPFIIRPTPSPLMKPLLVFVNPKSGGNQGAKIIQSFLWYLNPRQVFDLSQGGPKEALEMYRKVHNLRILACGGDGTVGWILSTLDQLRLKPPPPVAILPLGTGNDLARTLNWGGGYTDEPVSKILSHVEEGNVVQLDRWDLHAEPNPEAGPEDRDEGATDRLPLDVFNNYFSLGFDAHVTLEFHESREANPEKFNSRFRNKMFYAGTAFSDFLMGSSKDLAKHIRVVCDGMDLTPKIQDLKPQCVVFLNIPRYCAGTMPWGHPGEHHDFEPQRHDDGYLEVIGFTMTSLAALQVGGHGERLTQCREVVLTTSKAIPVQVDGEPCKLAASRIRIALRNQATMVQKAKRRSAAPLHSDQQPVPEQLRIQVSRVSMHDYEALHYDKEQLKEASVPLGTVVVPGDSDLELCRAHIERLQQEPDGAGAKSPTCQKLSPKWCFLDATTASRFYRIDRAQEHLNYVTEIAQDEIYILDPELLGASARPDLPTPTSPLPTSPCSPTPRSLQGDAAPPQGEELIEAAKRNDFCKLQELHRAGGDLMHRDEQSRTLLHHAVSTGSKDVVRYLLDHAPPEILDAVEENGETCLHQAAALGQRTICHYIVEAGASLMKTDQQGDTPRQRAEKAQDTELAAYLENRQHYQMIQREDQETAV

For `CC(C)NC(=O)c1cc(C(=O)c2sc(N(c3ccc(F)cc3)C(C)C(N)=O)nc2N)on1` (racemic) [Example 34, rac-5-[4-amino-2-(N-(2-amino-1-methyl-2-oxo-ethyl)-4-fluoro-anilino)thiazole-5-carbonyl]-N-isopropyl-isoxazole-3-carboxamide], the IC50 under setting [1] was determined as 223 nM.

For the molecule `CC(C(N)=O)N(c1ccc(F)c(F)c1)c1nc(N)c(C(=O)c2cc(C(=O)NC3CC(F)(F)C3)no2)s1` (single isomer, unassigned) [Example 45.1, 5-[4-amino-2-(N-(2-amino-1-methyl-2-oxo-ethyl)-3,4-difluoro-anilino)thiazole-5-carbonyl]-N-(3,3-difluorocyclobutyl)isoxazole-3-carboxamide], the IC50 under setting [1] was 20 nM.

For `CC(C(N)=O)N(c1ccc(F)cc1)c1nc(N)c(C(=O)c2cc(C(=O)NCCOC(C)(C)C)no2)s1` (racemic) [Example 26, rac-5-[4-amino-2-(N-(2-amino-1-methyl-2-oxo-ethyl)-4-fluoro-anilino)thiazole-5-carbonyl]-N-(2-tert-butoxyethyl)isoxazole-3-carboxamide], the half-inhibitory concentration (IC50) under setting [1] amounted to 138 nM.

Regarding `CC(C(N)=O)N(c1ccc(F)cc1)c1nc(N)c(C(=O)c2cc(Br)no2)s1` (single isomer, unassigned) [Example 6.1, 2-(N-[4-amino-5-(3-bromoisoxazole-5-carbonyl)thiazol-2-yl]-4-fluoro-anilino)propanamide], the IC50 under setting [1] came to 64 nM.

For `CC(C(N)=O)N(c1ccc(F)cc1)c1nc(N)c(C(=O)c2cc(-c3ccccn3)no2)s1` (racemic) [Example 68, rac-2-(N-[4-amino-5-[3-(2-pyridypisoxazole-5-carbonyl]thiazol-2-yl]-4-fluoro-anilino)propanamide], under setting [1], the IC50 is 402 nM.

As for `CC(C(N)=O)N(c1ccc(F)cc1)c1nc(N)c(C(=O)c2nc(-c3cccc(F)c3)no2)s1` (racemic) [Example 55, rac-2-(N-[4-amino-5-[3-(3-fluorophenyl)-1,2,4-oxadiazole-5-carbonyl]thiazol-2-yl]-4-fluoro-anilino)propanamide], the half-inhibitory concentration (IC50) under setting [1] worked out at 17 nM.

For the molecule `CC(C(N)=O)N(c1ccc(F)cc1)c1nc(N)c(C(=O)c2cc(Br)no2)s1` (racemic) [Example 6, rac-2-(N-[4-amino-5-(3-bromoisoxazole-5-carbonyl)thiazol-2-yl]-4-fluoro-anilino)propanamide], the IC50 under setting [1] came out at 123 nM.

Turning to `CC(C(N)=O)N(c1ccc(F)cc1)c1nc(N)c(C(=O)c2cc(-c3ccncc3)no2)s1` (racemic) [Example 8, rac-2-(N-[4-amino-5-[3-(4-pyridyl)isoxazole-5-carbonyl]thiazol-2-yl]-4-fluoro-anilino)propanamide], the 50% inhibitory concentration (IC50) under setting [1] turned out to be 728 nM.

As for `CC(C(N)=O)N(c1ccc(F)c(F)c1)c1nc(N)c(C(=O)c2cc(C(=O)NC3CC(F)(F)C3)no2)s1` (racemic) [Example 45, rac-5-[4-amino-2-(N-(2-amino-1-methyl-2-oxo-ethyl)-3,4-difluoro-anilino)thiazole-5-carbonyl]-N-(3,3-difluorocyclobutyl)isoxazole-3-carboxamide], the IC50 under setting [1] was found to be 53 nM.

For the molecule “rac-5-[4-amino-2-(N-(2-amino-1-methyl-2-oxo-ethyl)-4-fluoro-anilino)thiazole-5-carbonyl]-N-(1-cyclopropylcyclopropyl)isoxazole-3-carboxamide [Example 24]”, the IC50 (intermediates (comparative, lacking the R2 alkyl-carboxamide group), same assay conditions, read-out: IC50 values of intermediates in in vitro human DGKζ kinase activity inhibition assays) was > 20000 nM.

Take `CC(C(N)=O)N(c1ccc(F)cc1)c1nc(N)c(C(=O)c2cc(C(=O)NC3(C)CCC3)no2)s1` (racemic) [Example 30, rac-5-[4-amino-2-(N-(2-amino-1-methyl-2-oxo-ethyl)-4-fluoro-anilino)thiazole-5-carbonyl]-N-(1-methylcyclobutyl)isoxazole-3-carboxamide]: under setting [1], the half-inhibitory concentration (IC50) turned out to be 88 nM.

Take `CC(C(N)=O)N(c1ccc(F)cc1)c1nc(N)c(C(=O)c2cc(OC(F)F)no2)s1` (racemic) [Example 48, rac-2-(N-[4-amino-5-[3-(difluoromethoxy)isoxazole-5-carbonyl]thiazol-2-yl]-4-fluoro-anilino)propanamide]: the half-inhibitory concentration (IC50) under setting [1] stood at 73 nM.

In the case of `CC(C)Oc1cc(C(=O)c2sc(N(c3ccc(F)cc3)C(C)C(N)=O)nc2N)on1` (racemic) [Example 82, rac-2-(N-[4-amino-5-(3-isopropoxyisoxazole-5-carbonyl)thiazol-2-yl]-4-fluoro-anilino)propanamide], the concentration for half-maximal inhibition (IC50) under setting [1] is 49 nM.

With `CC(C(N)=O)N(c1ccc(F)cc1)c1nc(N)c(C(=O)c2cc(C(=O)NCCOC(F)(F)F)no2)s1` (racemic) [Example 29, rac-5-[4-amino-2-(N-(2-amino-1-methyl-2-oxo-ethyl)-4-fluoro-anilino)thiazole-5-carbonyl]-N-[2-(trifluoromethoxy)ethyl]isoxazole-3-carboxamide], the 50% inhibitory concentration (IC50) under setting [1] turned out to be 97 nM.

For the molecule `CC(C(N)=O)N(c1ccc(F)cc1)c1nc(N)c(C(=O)c2cc(C(=O)NC3(C)CCC3)no2)s1` (single isomer, unassigned) [Example 30.1, 5-[4-amino-2-(N-(2-amino-1-methyl-2-oxo-ethyl)-4-fluoro-anilino)thiazole-5-carbonyl]-N-(1-methylcyclobutyl)isoxazole-3-carboxamide], the IC50 under setting [1] was 29 nM.

In the case of `CC(C(N)=O)N(c1ccc(F)cc1)c1nc(N)c(C(=O)c2cc(C(=O)N3CCC3)no2)s1` (racemic) [Example 18, rac-2-(N-[4-amino-5-[3-(azetidine-1-carbonyl)isoxazole-5-carbonyl]thiazol-2-yl]-4-fluoro-anilino)propanamide], the 50% inhibitory concentration (IC50) under setting [1] came to 492 nM.

`CC(C(N)=O)N(c1ccc(F)cc1)c1nc(N)c(C(=O)c2cc(C(=O)NC3CC(F)(F)C3)no2)s1` (single isomer, unassigned) [Example 32.1, 5-[4-amino-2-(N-(2-amino-1-methyl-2-oxo-ethyl)-4-fluoro-anilino)thiazole-5-carbonyl]-N-(3,3-difluorocyclobutyl)isoxazole-3-carboxamide]: the half-maximal inhibitory concentration (IC50) under setting [1] amounted to 31 nM.

`CC(C(N)=O)N(c1ccc(F)cc1)c1nc(N)c(C(=O)c2cc(OC3CCC3)no2)s1` (racemic) [Example 79, rac-2-(N-[4-amino-5-[3-(cyclobutoxy)isoxazole-5-carbonyl]thiazol-2-yl]-4-fluoro-anilino)propanamide]: the IC50 under setting [1] was 88 nM.

For `CC(C(N)=O)N(c1ccc(F)cc1)c1nc(N)c(C(=O)c2nc(-c3ccccc3)no2)s1` (racemic) [Example 51, rac-2-(N-[4-amino-5-(3-phenyl-1,2,4-oxadiazole-5-carbonyl)thiazol-2-yl]-4-fluoro-anilino) propanamide], the IC50 under setting [1] was 17 nM.

On to `CC(C(N)=O)N(c1ccc(F)cc1)c1nc(N)c(C(=O)c2cc(CNC3(C)CCCC3)no2)s1` (racemic) [Example 61, rac-2-(Np[4-amino-5-[3-[[(1-methylcyclopentyl)amino]methyl]isoxazole-5-carbonyl]thiazol-2-yl]-4-fluoro-anilino)propanamide], for which the half-inhibitory concentration (IC50) under setting [1] is 98 nM.

For `CC(C(N)=O)N(c1ccc(F)cc1)c1nc(N)c(C(=O)c2cc(C3CCCC3)no2)s1` (racemic) [Example 47, rac-2-(N-[4-amino-5-(3-cyclopentylisoxazole-5-carbonyl)thiazol-2-yl]-4-fluoro-anilino)propanamide], the IC50 under setting [1] worked out at 42 nM.

A word on the IC50: it is the concentration at which inhibition is half-maximal.
